# Patent US7910624B1, “Compositions for the treatment of blood disorders” (The Trustees of Boston University, priority 1995, dated 2011)
# Legend:
# [1] = system: proximal promoter of the gamma globin gene in K562 cells; test: Gamma globin promoter-neomycin (NEO) transfection, colony survival in G418; assay type: cell-based, human; settings: 1 mM, 8 weeks
# Description: Gamma globin promoter-neomycin transfection experiments were performed to determine if compounds act by inducing an increase in activity from the proximal promoter of the gamma globin gene. Constructs containing 61 by of the proximal gamma globin promoter were linked to the reporter gene for neomycin phosphotransferase (NEO) and transfected into permissive K562 cells by electroporation. After 18 hours, transfected cells were passed at 10^3 cells per well into RPMI media containing G418 (neomycin), which kills all mammalian cells unless the gene for NEO is expressed. Phenoxyacetic acid and thiophenoxyacetic acid were added to some of the cells plated into the RPMI/G418 media at concentrations of 1 mM. Cultures were incubated for 8 weeks with media changes performed as needed. Colonies which survived and grew in the presence of G418 were scored and the number of such colonies was compared to those generated when the cells were plated into G418 media without the test compounds. No colonies in the 24 wells survived in the absence of compounds. There was a greater than 6-fold (>600%) increase in proportions of colonies surviving the presence of phenoxyacetic acid (6/24 wells) and a three-fold (300%) increase in survival in the presence of thiophenoxyacetic acid (3/24 wells).
# [2] = system: BFU-e (burst forming unit-erythroid) colonies from peripheral blood mononuclear cells; test: Stimulation of erythroid proliferation in cell cultures (BFU-e colony growth); assay type: cell-based, human; settings: 0.1 mM; 13-14 days; compared with control cultures
# Description: Peripheral blood was collected from normal volunteers and patients with anemia due to sickle cell disease or thalassemia. Mononuclear cells were isolated by Ficoll-Hypaque (Pharmacia Biotech; Piscataway, N.J.) centrifugation and cultured in Iscove's Modified Dulbecco's Media (IMDM; GIBCO/BRL; Grand Island, N.Y.) supplemented with 10% fetal calf serum, 300 μg/ml glutamine, 3 units/ml IL-3 (Amgen; Thousand Oaks, Calif.), and 2 units/ml erythropoietin (Terry Fox Labs; Vancouver, B.C.). Chemical compounds were obtained from Sigma Chemical (St. Louis, Mo.) or Aldrich Chemical (Milwaukee, Wis.), unless otherwise indicated, and formulated into pharmaceutical compositions by dissolving in aqueous solutions of media or sterile water pH adjusted to about 7.4. Solutions were sterilized by passage at least once through 0.22 micron Nalgene filters and added to cell cultures at final concentrations that are pharmaceutically achievable in vivo (typically between about 0.1 mM to 2.0 mM). Cells were incubated with compounds for between 13-14 days at 37° C. in humidified 5% CO2, and fed and passed, as necessary. Colony growth, proportion of fetal globin-expressing cells and amounts of fetal globin production were assayed. Results are presented in Table 1 as BFU-e stimulation (colony growth).
structure (smiles),measurement,setting,value
"O=C(O)COc1ccccc1 [PAA, Phenoxyacetic acid]",increase in proportions of colonies surviving G418,[1],> 600%
same,wells with surviving colonies,[1]; 0 of 24 wells without compounds,6/24
same,increase in proportions of colonies surviving G418,[1]; no colonies without compounds,greater than 6 fold
same,BFU-e Stimulation (colony growth),[2],135%
